From patent publication US20260022143A1, “Cyclic Peptide Inhibitors of IL-23” (JANSSEN PHARMACEUTICA NV, priority 2022, published 2026) come the findings set out here.

Data set [1] in a line: Exposed Polar Surface Area (EPSA). The data set is classed as physicochemical. Particulars: SFC on Chirex 3014 column; sample 1 mM DMSO stock; read-out: EPSA. In a few lines: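 Compounds, as 1 mM DMSO stock, were injected in duplicate onto an SFC Chirex 3014 column at 35 °C and eluted with a CO2/methanol (20 mM ammonium formate) gradient. EPSA values in Å^2 were derived from retention times using a linear fit to eight calibration standards, reinjected every 20 compounds.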

The target of data set [2] is T1, IL-23R (Homo sapiens, UniProt Q5VWK5).
T1 construct: host or cells: HEK293
T1 sequence (Q5VWK5 24-629): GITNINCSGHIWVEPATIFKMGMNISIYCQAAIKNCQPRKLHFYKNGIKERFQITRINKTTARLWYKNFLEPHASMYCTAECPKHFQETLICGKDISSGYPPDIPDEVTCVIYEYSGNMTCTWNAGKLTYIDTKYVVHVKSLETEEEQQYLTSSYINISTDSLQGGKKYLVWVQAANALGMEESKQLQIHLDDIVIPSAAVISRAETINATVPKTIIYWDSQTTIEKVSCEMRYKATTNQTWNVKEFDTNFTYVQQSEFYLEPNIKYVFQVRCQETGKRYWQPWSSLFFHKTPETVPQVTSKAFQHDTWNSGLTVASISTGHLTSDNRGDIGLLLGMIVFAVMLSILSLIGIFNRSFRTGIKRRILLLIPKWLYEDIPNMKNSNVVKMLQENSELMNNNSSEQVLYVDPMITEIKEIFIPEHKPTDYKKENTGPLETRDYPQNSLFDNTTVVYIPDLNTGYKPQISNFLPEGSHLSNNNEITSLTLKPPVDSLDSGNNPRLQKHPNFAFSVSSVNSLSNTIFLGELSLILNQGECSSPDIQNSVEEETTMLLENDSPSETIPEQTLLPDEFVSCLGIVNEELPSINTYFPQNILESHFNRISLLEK
The data set is described as follows: IL23R Reporter Assay. The data set is classed as cell-based. The note with it: HEK293 cells containing IL-23R, IL-12RP1 and STAT-inducible firefly luciferase reporter; 10 ng/mL IL-23 (EC90); 5 h at 37° C.; read-out: IL23R Reporter Assay. Background: In a reporter assay the amount or activity of a reporter protein is the signal.

The structures appear in SMILES notation. Counter-ions that a name gives are not always drawn. Starred links: 1 amine or outer side, 2 acyl side, 3 side chain; linkers in the order of their positions; H or OH if unused. Positions of bridges follow the written chain, without caps; N, C: chain ends. Non-standard residues stand in square brackets, D forms with d. Residues, ends and D or L forms follow the SMILES beside them. Groups on a side chain read outwards from the residue. *: point of attachment. X21 = O=C([C@H](Cc1cncc(C(F)(F)F)c1)N[*:1])[*:2]; Trp(7-Me) = Cc1cccc2c(C[C@H](N)C(=O)O)c[nH]c12; 2Nal = N[C@@H](Cc1ccc2ccccc2c1)C(=O)O; AEF = NCCOc1ccc(C[C@H](N)C(=O)O)cc1; dNMeY = CN[C@H](Cc1ccc(O)cc1)C(=O)O; PEG6 = NCCOCCOCCOCCOCCOCCOCCC(=O)O; 3Pal = N[C@@H](Cc1cccnc1)C(=O)O; Cit = NC(=O)NCCC[C@H](N)C(=O)O; Lys(Me) = CNCCCC[C@H](N)C(=O)O; X7 = COCCOCCOCCOCCOCCOCCC(=O)*; αMeL = CC(C)C[C@](C)(N)C(=O)O; Pen = CC(C)(S)[C@H](N)C(=O)O; Thp = NC1(C(=O)O)CCOCC1; Tfa = O=C(C(F)(F)F)*; NHtBu = CC(C)(C)N*; Sar = CNCC(=O)O

As for `CC(=O)N[C@H](CCCNC(=N)N)C(=O)N[C@@H]1C(=O)N[C@@H](CC(N)=O)C(=O)N[C@@H]([C@@H](C)O)C(=O)N[C@@H](Cc2c[nH]c3c(C)cccc23)C(=O)N[C@@H](CCCNC(N)=O)C(=O)N[C@H](C(=O)N[C@@H](Cc2ccc(OCCN)cc2)C(=O)N[C@@H](Cc2ccc3ccccc3c2)C(=O)N[C@@](C)(CC(C)C)C(=O)N[C@@H](CCC(=O)O)C(=O)N[C@@H](CC(N)=O)C(=O)N[C@H](CCCCN)C(=O)N(C)[C@H](Cc2ccc(O)cc2)C(N)=O)C(C)(C)SSC1(C)C` [compound 16, MeCO-r-Pen(3)-N-T-7MeW-Cit-Pen(3)-AEF-2Nal-aMeL-E-N-k-NMeDTyr-CONH2] (Ac-[dR][Pen]NT[Trp(7-Me)][Cit][Pen][AEF][2Nal][αMeL]EN[dK][dNMeY]-NH2; disulfide 2-7), the EPSA in data set [1] was 180 A^2. The IC50 in data set [2] stood at 24 nM.
On the same counts, the results for `CC(=O)N[C@H](CCCNC(=N)N)C(=O)N[C@@H]1C(=O)N[C@@H](CC(N)=O)C(=O)N[C@@H]([C@@H](C)O)C(=O)N[C@@H](Cc2c[nH]c3c(C)cccc23)C(=O)N[C@@H](CCCNC(N)=O)C(=O)N[C@H](C(=O)N[C@@H](Cc2ccc(OCCN)cc2)C(=O)N[C@@H](Cc2ccc3ccccc3c2)C(=O)N[C@@](C)(CC(C)C)C(=O)N[C@@H](CCC(=O)O)C(=O)N[C@@H](CC(N)=O)C(=O)N[C@H](Cc2c[nH]cn2)C(=O)N(C)[C@H](Cc2ccc(O)cc2)C(N)=O)C(C)(C)SSC1(C)C` [compound 17, MeCO-r-Pen(3)-N-T-7MeW-Cit-Pen(3)-AEF-2Nal-aMeL-E-N-h-NMeDTyr-CONH2] (Ac-[dR][Pen]NT[Trp(7-Me)][Cit][Pen][AEF][2Nal][αMeL]EN[dH][dNMeY]-NH2; disulfide 2-7) are 186 A^2 and 38 nM.
For `CC(=O)NCCCC[C@@H]1NC(=O)[C@H](Cc2c[nH]c3c(C)cccc23)NC(=O)[C@H]([C@@H](C)O)NC(=O)[C@H](CC(N)=O)NC(=O)[C@@H](NC(=O)[C@@H](CCCNC(=N)N)NC(C)=O)C(C)(C)SSC(C)(C)[C@@H](C(=O)N[C@@H](Cc2ccc(OCCN)cc2)C(=O)N[C@@H](Cc2ccc3ccccc3c2)C(=O)NC2(C(=O)N[C@@H](CCC(=O)O)C(=O)N[C@@H](CC(N)=O)C(=O)N[C@@H](Cc3cccnc3)C(=O)N(C)[C@H](Cc3ccc(O)cc3)C(N)=O)CCOCC2)NC1=O` [compound 35, MeCO-r-Pen(3)-N-T-7MeW-K(Ac)-Pen(3)-AEF-2Nal-THp-E-N-3Pya-NMeDTyr-CONH2] (Ac-[dR][Pen]NT[Trp(7-Me)]K(Ac)[Pen][AEF][2Nal][Thp]EN[3Pal][dNMeY]-NH2; disulfide 2-7), in that order: 184 A^2 and 3.4 nM.
On the same counts, the results for `CC(=O)NCCCC[C@@H]1NC(=O)[C@H](Cc2c[nH]c3c(C)cccc23)NC(=O)[C@H]([C@@H](C)O)NC(=O)[C@H](CC(N)=O)NC(=O)[C@@H](NC(=O)[C@@H](CCCCNC(=O)CCOCCOCCOCCOCCOCCOCCNC(C)=O)NC(C)=O)C(C)(C)SSC(C)(C)[C@@H](C(=O)N[C@@H](Cc2ccc(OCCN)cc2)C(=O)N[C@@H](Cc2ccc3ccccc3c2)C(=O)NC2(C(=O)N[C@@H](CCCCNC(C)=O)C(=O)N[C@@H](CC(N)=O)C(=O)N[C@@H](Cc3cccnc3)C(=O)N(C)CC(N)=O)CCOCC2)NC1=O` [compound 39] (Ac-[dK]([PEG6-Ac])[Pen]NT[Trp(7-Me)]K(Ac)[Pen][AEF][2Nal][Thp]K(Ac)N[3Pal][Sar]-NH2; disulfide 2-7 (inferred)) are 158 A^2 and 5.5 nM.
For the molecule `CNC(=O)C[C@@H]1NC(=O)[C@@H](NC(C)=O)C(C)(C)SSC(C)(C)[C@@H](C(=O)N[C@@H](Cc2ccc(OCCN)cc2)C(=O)N[C@@H](Cc2ccc3ccccc3c2)C(=O)NC2(C(=O)N[C@@H](CCCCNC(C)=O)C(=O)N[C@@H](CC(N)=O)C(=O)N[C@@H](Cc3cccnc3)C(=O)N(C)CC(N)=O)CCOCC2)NC(=O)[C@H](CCCCNC(C)=O)NC(=O)[C@H](Cc2c[nH]c3c(C)cccc23)NC(=O)[C@H]([C@@H](C)O)NC1=O` [compound 46] (Ac-[Pen]D(NHMe)T[Trp(7-Me)]K(Ac)[Pen][AEF][2Nal][Thp]K(Ac)N[3Pal][Sar]-NH2; disulfide 1-6 (inferred)), in data set [1], the EPSA is 162 A^2. Also, in data set [2], the IC50 turned out to be 3.2 nM.
For `CC(=O)NCCCC[C@@H]1NC(=O)[C@H](Cc2c[nH]c3c(C)cccc23)NC(=O)[C@H]([C@@H](C)O)NC(=O)[C@H](CC(=O)N(C)C)NC(=O)[C@@H](NC(=O)C(F)(F)F)C(C)(C)SSC(C)(C)[C@@H](C(=O)N[C@@H](Cc2ccc(OCCN)cc2)C(=O)N[C@@H](Cc2ccc3ccccc3c2)C(=O)NC2(C(=O)N[C@@H](CCCCNC(C)=O)C(=O)N[C@@H](CC(N)=O)C(=O)N[C@@H](Cc3cccnc3)C(=O)N(C)CC(N)=O)CCOCC2)NC1=O` [compound 52, CF3CO-Pen(3)-N(N(Me)2)-T-7MeW-K(Ac)-Pen(3)-AEF-2Nal-THP-K(Ac)-N-3Pya-Sar-CONH2] (Tfa-[Pen]D(NMe2)T[Trp(7-Me)]K(Ac)[Pen][AEF][2Nal][Thp]K(Ac)N[3Pal][Sar]-NH2; disulfide 1-6 (inferred)), in that order: 158 A^2 and 4.6 nM.
For `CC(=O)NCCCC[C@@H]1NC(=O)[C@H](Cc2c[nH]c3c(C)cccc23)NC(=O)[C@H]([C@@H](C)O)NC(=O)[C@H](CC(N)=O)NC(=O)[C@@H](NC(=O)C(F)(F)F)C(C)(C)SSC(C)(C)[C@@H](C(=O)N[C@@H](Cc2ccc(OCCN)cc2)C(=O)N[C@@H](Cc2ccc3ccccc3c2)C(=O)NC2(C(=O)N[C@@H](CCCCNC(C)=O)C(=O)N[C@@H](CC(N)=O)C(=O)N[C@@H](Cc3cncc(C(F)(F)F)c3)C(=O)N(C)CC(N)=O)CCOCC2)NC1=O` [compound 56] (Tfa-[Pen]NT[Trp(7-Me)]K(Ac)[Pen][AEF][2Nal][Thp]K(Ac)N[X21][Sar]-NH2; disulfide 1-6 (inferred)), in that order: 158 A^2 and 5.7 nM.
For `CNC(=O)C[C@@H]1NC(=O)[C@@H](NC(C)=O)C(C)(C)SSC(C)(C)[C@@H](C(=O)N[C@@H](Cc2ccc(OCCNC(C)=O)cc2)C(=O)N[C@@H](Cc2ccc3ccccc3c2)C(=O)NC2(C(=O)N[C@@H](CCCCN(C)C(C)=O)C(=O)N[C@@H](CC(N)=O)C(=O)N[C@@H](Cc3cccnc3)C(=O)N(C)CC(N)=O)CCOCC2)NC(=O)[C@H](CCCCN(C)C(C)=O)NC(=O)[C@H](Cc2c[nH]c3c(C)cccc23)NC(=O)[C@H]([C@@H](C)O)NC1=O` [compound 58] (Ac-[Pen]D(NHMe)T[Trp(7-Me)][Lys(Me)](Ac)[Pen][AEF](Ac)[2Nal][Thp][Lys(Me)](Ac)N[3Pal][Sar]-NH2; disulfide 1-6), in that order: 154 A^2 and 4.3 nM.
As for `CC(=O)NCCCC[C@H](NC(=O)C1(NC(=O)[C@H](Cc2ccc3ccccc3c2)NC(=O)[C@H](Cc2ccc(OCCN)cc2)NC(=O)[C@H]2NC(=O)[C@H](CCC(=O)NC(C)(C)C)NC(=O)[C@H](Cc3c[nH]c4c(C)cccc34)NC(=O)[C@H]([C@@H](C)O)NC(=O)[C@H](CC(N)=O)NC(=O)[C@@H](NC(=O)C(F)(F)F)C(C)(C)SSC2(C)C)CCOCC1)C(=O)N[C@@H](CC(N)=O)C(=O)N[C@@H](Cc1cccnc1)C(=O)N(C)CC(N)=O` [compound 60] (Tfa-[Pen]NT[Trp(7-Me)]E(NHtBu)[Pen][AEF][2Nal][Thp]K(Ac)N[3Pal][Sar]-NH2; disulfide 1-6 (inferred)), the EPSA in data set [1] came out at 157 A^2. Also, the IC50 in data set [2] amounted to 3.5 nM.
For `CC(=O)NCCCC[C@@H]1NC(=O)[C@H](Cc2c[nH]c3c(C)cccc23)NC(=O)[C@H]([C@@H](C)O)NC(=O)[C@H](CC(N)=O)NC(=O)[C@@H](NC(=O)C(F)(F)F)C(C)(C)SSC(C)(C)[C@@H](C(=O)N[C@@H](Cc2ccc(OCCN)cc2)C(=O)N[C@@H](Cc2ccc3ccccc3c2)C(=O)NC2(C(=O)N[C@@H](CCCCNC(C)=O)C(=O)N[C@@H](CC(N)=O)C(=O)N[C@@H](Cc3cccnc3)C(=O)N(C)C)CCOCC2)NC1=O` [compound 63] (Tfa-[Pen]NT[Trp(7-Me)]K(Ac)[Pen][AEF][2Nal][Thp]K(Ac)N[3Pal]-NMe2; disulfide 1-6 (inferred)), in that order: 157 A^2 and 25 nM.
For `COCCOCCOCCOCCOCCOCCC(=O)N[C@@H]1C(=O)N[C@@H](CC(N)=O)C(=O)N[C@@H]([C@@H](C)O)C(=O)N[C@@H](Cc2c[nH]c3c(C)cccc23)C(=O)N[C@@H](CCCCNC(C)=O)C(=O)N[C@H](C(=O)N[C@@H](Cc2ccc(OCCN)cc2)C(=O)N[C@@H](Cc2ccc3ccccc3c2)C(=O)NC2(C(=O)N[C@@H](CCCCNC(C)=O)C(=O)N[C@@H](CC(N)=O)C(=O)N[C@@H](Cc3cccnc3)C(=O)N(C)CC(N)=O)CCOCC2)C(C)(C)SSC1(C)C` [compound 64] (X7-[Pen]NT[Trp(7-Me)]K(Ac)[Pen][AEF][2Nal][Thp]K(Ac)N[3Pal][Sar]-NH2; disulfide 1-6 (inferred)), in that order: 160 A^2 and 4.9 nM.
